Source: patent US10752588B2 (The Broad Institute, Inc., priority 2014, dated 2020)
Where two headings read alike, the source gives them in different places.

Experiments:
human D2R/β-arrestin [1] = biological target: T1, human D2R/β-arrestin (Homo sapiens (Human), UniProt P14416); experiment: β-Arrestin agonist assay (PathHunter); format: cell-based; settings: CHO-K1 cell line expressing human D2R/β-arrestin
Method in brief: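 Readout follows addition of Buffer:Emerald II:Galactor-Star reagent (19:5:1) to agonist-treated plates, measured as luminescence or fluorescence.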

human D2R/β-arrestin [2] = biological target: T1, human D2R/β-arrestin; settings: read-out: β-arrestin Antagonist; CHO-K1 cell line expressing human D2R/β-arrestin; quinpirole used as agonist
human D2R/β-arrestin [3] = biological target: T1, human D2R/β-arrestin; experiment: Gi/cAMP agonist assay (Lance Ultra cAMP, Forskolin); format: cell-based; settings: CHO-K1 cell line expressing human D2R/β-arrestin
Method in brief: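 Read-out was Lance Ultra competitive TR-FRET (Eu-cAMP tracer plus ULight-anti-cAMP) following forskolin-induced cAMP production. Before forskolin stimulation, compounds were pin-transferred onto the seeded cells for 10 min at 37 °C.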

human D2R/β-arrestin [4] = biological target: T1, human D2R/β-arrestin; experiment: cell-based; settings: β-arrestin Antagonist, CHO-K1 cell line expressing human D2R/β-arrestin; quinpirole used as agonist
[5] = Microsomal stability, mouse
human D2R/β-arrestin [6] = biological target: T1, human D2R/β-arrestin; experiment: cell-based; settings: cAMP Antagonist, CHO-K1 cell line expressing human D2R/β-arrestin; quinpirole used as agonist

T1 sequence (P14416 whole entry): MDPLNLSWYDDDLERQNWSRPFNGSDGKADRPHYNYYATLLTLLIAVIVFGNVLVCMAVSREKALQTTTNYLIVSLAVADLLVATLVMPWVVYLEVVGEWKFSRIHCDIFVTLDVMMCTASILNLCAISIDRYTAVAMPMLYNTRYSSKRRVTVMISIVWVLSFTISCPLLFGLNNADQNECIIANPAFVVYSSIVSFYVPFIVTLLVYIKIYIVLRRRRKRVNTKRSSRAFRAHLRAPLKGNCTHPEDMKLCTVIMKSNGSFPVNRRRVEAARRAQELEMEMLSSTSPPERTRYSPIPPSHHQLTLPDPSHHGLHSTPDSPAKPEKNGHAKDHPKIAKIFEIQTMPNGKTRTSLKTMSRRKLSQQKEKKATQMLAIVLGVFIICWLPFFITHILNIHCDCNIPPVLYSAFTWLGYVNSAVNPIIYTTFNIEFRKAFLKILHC

COc1cccc(C(NC(=O)C2CCN(CCOc3ccccc3)CC2)c2ccccc2)c1 (stereo not shown) [Compound 46]
EC50 (human D2R/β-arrestin [1]): > 30 µM
IC50 (human D2R/β-arrestin [2]): 1 to 10 µM

O=C(NC(c1ccc(Cl)cc1)c1ccncc1F)C1CCN(CCOc2ccccc2F)CC1 (single isomer, unassigned) [Compound 91b, N-((4-chlorophenyl)(3-fluoropyridin-4-yl)methyl)-1-(2-(2-fluorophenoxy)ethyl)piperidine-4-carboxamide]
EC50 (human D2R/β-arrestin [3]): > 30 µM
IC50 (human D2R/β-arrestin [4]): 0.1 to 1 µM
EC50 (human D2R/β-arrestin [1]): > 30 µM
Microsomal Stability: % remaining after 60 minutes [5]: m1%
IC50 (human D2R/β-arrestin [6]): 0.1 to 1 µM

O=C(NC(c1ccc(Cl)cc1)c1ccccc1F)C1CCN(CCOc2ccccc2F)CC1 (stereo not shown) [Compound 96, N-((4-chlorophenyl)(2-fluorophenyl)methyl)-1-(2-(2-fluorophenoxy)ethyl) piperidine-4-carboxamide]
EC50 (human D2R/β-arrestin [3]): 0.1 to 1 µM
IC50 (human D2R/β-arrestin [4]): 0.1 to 1 µM
EC50 (human D2R/β-arrestin [1]): > 30 µM
Microsomal Stability: % remaining after 60 minutes [5]: m26%
IC50 (human D2R/β-arrestin [6]): 0.1 to 1 µM

Clc1ccc(C(c2ccccn2)N2CCC3(CCN(CCOc4ccccc4)CC3)C2)cc1 (single isomer, unassigned) [Compound 105a, 2-((4-chlorophenyl)(pyridin-2-yl)methyl)-8-(2-phenoxyethyl)-2,8-diazaspiro[4.5]decane]
EC50 (human D2R/β-arrestin [3]): < 0.1 µM
IC50 (human D2R/β-arrestin [4]): 0.1 to 1 µM
EC50 (human D2R/β-arrestin [1]): 0.1 to 1 µM
Microsomal Stability: % remaining after 60 minutes [5]: m1%
IC50 (human D2R/β-arrestin [6]): > 30 µM

CC1(CNC(c2ccc(F)cc2)c2ccccn2)CCN(CCOc2ccccc2C(F)(F)F)CC1 (single isomer, unassigned) [Compound 101b, 1-(4-fluorophenyl)-N-((4-methyl-1-(2-(2-(trifluoromethyl)phenoxy)ethyl)piperidin-4-yl)methyl)-1-(pyridin-2-yl)methanamine]
EC50 (human D2R/β-arrestin [1]): > 30 µM
IC50 (human D2R/β-arrestin [2]): 0.1 to 1 µM

CC(C)N(CC1CCN(CCOc2ccc(F)cc2)CC1)C(c1ccc(Cl)cc1)c1ccccn1 (stereo not shown) [Compound 135, N-((4-chlorophenyl)(pyridin-2-yl)methyl)-N-((1-(2-(4-fluorophenoxy)ethyl)piperidin-4-yl)methyl)propan-2-amine]
EC50 (human D2R/β-arrestin [3]): > 30 µM
IC50 (human D2R/β-arrestin [4]): 1 to 10 µM
EC50 (human D2R/β-arrestin [1]): > 30 µM
Microsomal Stability: % remaining after 60 minutes [5]: m2%
IC50 (human D2R/β-arrestin [6]): 0.1 to 1 µM

O=C(NC(c1cccc(OC(F)(F)F)c1)c1ccccn1)C1CCN(CCOc2ccccc2F)CC1 (stereo not shown) [Compound 93, 1-(2-(2-fluorophenoxy)ethyl)-N-(pyridin-2-yl(3-(trifluoromethoxy)phenyl)methyl)piperidine-4-carboxamide]
EC50 (human D2R/β-arrestin [3]): < 0.1 µM
IC50 (human D2R/β-arrestin [4]): 0.1 to 1 µM
EC50 (human D2R/β-arrestin [1]): > 30 µM
Microsomal Stability: % remaining after 60 minutes [5]: m12%
IC50 (human D2R/β-arrestin [6]): > 30 µM

Clc1ccc(C(OCC2CCN(CCOc3ccccc3)CC2)c2ccccn2)cc1 (stereo not shown) [Compound 99, 2-((4-chlorophenyl)((1-(2-phenoxyethyl)piperidin-4-yl)methoxy)methyl)pyridine]
EC50 (human D2R/β-arrestin [3]): 0.1 to 1 µM
IC50 (human D2R/β-arrestin [4]): 1 to 10 µM
EC50 (human D2R/β-arrestin [1]): > 30 µM
Microsomal Stability: % remaining after 60 minutes [5]: m7%
IC50 (human D2R/β-arrestin [6]): > 30 µM

CN(C(=O)C1CCN(CCOc2ccccc2)CC1)C(c1ccc(Cl)cc1)c1ccccn1 (stereo not shown) [Compound 51, N((4-chlorophenyl)(pyridin-2-yl)methyl)-N-methyl-1-(2-phenoxyethyl) piperidine-4-carboxamide]
EC50 (human D2R/β-arrestin [3]): 0.1 to 1 µM
IC50 (human D2R/β-arrestin [4]): 1 to 10 µM
EC50 (human D2R/β-arrestin [1]): > 30 µM
Microsomal Stability: % remaining after 60 minutes [5]: m0%
IC50 (human D2R/β-arrestin [6]): > 30 µM

CC(C1CCN(CCOc2ccccc2)CC1)N(C)C(c1ccc(Cl)cc1)c1ccccn1 (single isomer, unassigned) [Compound 97b, N-((4-chlorophenyl)(pyridin-2-yl)methyl)-N-methyl-1-(1-(2-phenoxyethyl)piperidin-4-yl)ethan-1-amine]
EC50 (human D2R/β-arrestin [3]): 0.1 to 1 µM
IC50 (human D2R/β-arrestin [4]): 0.1 to 1 µM
EC50 (human D2R/β-arrestin [1]): > 30 µM
Microsomal Stability: % remaining after 60 minutes [5]: m3%
IC50 (human D2R/β-arrestin [6]): 0.1 to 1 µM

CN(CC1CCN(CCOc2ccc(C(F)(F)F)cc2)CC1)C(c1ccc(Cl)cc1)c1ccccn1 (stereo not shown) [Compound 137, 1-(4-chlorophenyl)-N-methyl-1-(pyridin-2-yl)-N-((1-(2-(4-(trifluoromethyl)phenoxy)ethyl)piperidin-4-yl)methyl)methanamine]
EC50 (human D2R/β-arrestin [3]): > 30 µM
IC50 (human D2R/β-arrestin [4]): 1 to 10 µM
EC50 (human D2R/β-arrestin [1]): > 30 µM
Microsomal Stability: % remaining after 60 minutes [5]: m1%
IC50 (human D2R/β-arrestin [6]): 1 to 10 µM

Clc1ccc(C(c2ccccn2)N2CC3(CCN(CCOc4ccccc4)CC3)C2)cc1 (stereo not shown) [Compound 104, 2-((4-chlorophenyl)(pyridin-2-yl)methyl)-7-(2-phenoxyethyl)-2,7-diazaspiro[3.5]nonane]
EC50 (human D2R/β-arrestin [3]): 1 to 10 µM
IC50 (human D2R/β-arrestin [4]): 10 to 30 µM
EC50 (human D2R/β-arrestin [1]): > 30 µM
Microsomal Stability: % remaining after 60 minutes [5]: m45%
IC50 (human D2R/β-arrestin [6]): > 30 µM

CC1(C(=O)NC(c2ccc(Cl)cc2)c2ccccn2)CCN(CCOc2ccccc2)CC1 (stereo not shown) [Compound 144, N-((4-chlorophenyl)(pyridin-2-yl)methyl)-4-methyl-1-(2-phenoxyethyl)piperidine-4-carboxamide]
EC50 (human D2R/β-arrestin [3]): < 0.1 µM
IC50 (human D2R/β-arrestin [4]): < 0.1 µM
EC50 (human D2R/β-arrestin [1]): < 0.1 µM
IC50 (human D2R/β-arrestin [6]): > 30 µM

O=C(NC(c1ccc(Cl)cc1)c1ccncc1F)C1CCN(CCOc2ccccc2F)CC1 (stereo not shown) [Compound 91, N-((4-chlorophenyl)(3-fluoropyridin-4-yl)methyl)-1-(2-(2-fluorophenoxy)ethyl)piperidine-4-carboxamide]
EC50 (human D2R/β-arrestin [3]): 0.1 to 1 µM
IC50 (human D2R/β-arrestin [4]): 0.1 to 1 µM
EC50 (human D2R/β-arrestin [1]): > 30 µM
IC50 (human D2R/β-arrestin [6]): 0.1 to 1 µM

O=C(NC(c1ccc2c(c1)OC(F)(F)O2)c1ccccn1)C1CCN(CCOc2ccccc2)CC1 (stereo not shown) [Compound 119]
EC50 (human D2R/β-arrestin [3]): < 0.1 µM
IC50 (human D2R/β-arrestin [4]): 0.1 to 1 µM
EC50 (human D2R/β-arrestin [1]): > 30 µM
IC50 (human D2R/β-arrestin [6]): > 30 µM

COc1cccc(C(NC(=O)C2CCN(CCOc3ccc(F)cc3F)CC2)c2ccccn2)c1 (single isomer, unassigned) [Compound 145a, 1-(2-(2,4-difluorophenoxy)ethyl)-N-((3-methoxyphenyl)(pyridin-2-yl)methyl)piperidine-4-carboxamide]
EC50 (human D2R/β-arrestin [3]): > 30 µM
IC50 (human D2R/β-arrestin [4]): 10 to 30 µM
EC50 (human D2R/β-arrestin [1]): > 30 µM
IC50 (human D2R/β-arrestin [6]): 1 to 10 µM

FC(F)(F)c1ccccc1OCCN1CCC2(CC1)CCN(C(c1ccc(Cl)cc1)c1ccccn1)C2 (stereo not shown) [Compound 106, 2-((4-chlorophenyl)(pyridin-2-yl)methyl)-8-(2-(2-(trifluoromethyl)phenoxy)ethyl)-2,8-diazaspiro[4.5]decane]
EC50 (human D2R/β-arrestin [3]): 1 to 10 µM
IC50 (human D2R/β-arrestin [4]): 0.1 to 1 µM
EC50 (human D2R/β-arrestin [1]): > 30 µM
IC50 (human D2R/β-arrestin [6]): 1 to 10 µM

Fc1ccccc1OCCN1CCC(CN(CC(F)(F)F)C(c2ccc(Cl)cc2)c2ccccn2)CC1 (stereo not shown) [Compound 136, N-((4-chlorophenyl)(pyridin-2-yl)methyl)-2,2,2-trifluoro-N-((1-(2-(2-fluorophenoxy)ethyl)piperidin-4-yl)methyl)ethan-1-amine]
EC50 (human D2R/β-arrestin [3]): 1 to 10 µM
IC50 (human D2R/β-arrestin [4]): < 0.1 µM
EC50 (human D2R/β-arrestin [1]): > 30 µM
IC50 (human D2R/β-arrestin [6]): < 0.1 µM

FC(F)(F)CN(CC1CCN(CCOc2ccccc2)CC1)C(c1ccc(Cl)cc1)c1ccccn1 (single isomer, unassigned) [Compound 125a, N-((4-chlorophenyl)(pyridin-2-yl)methyl)-2,2,2-trifluoro-N-((1-(2-phenoxyethyl)piperidin-4-yl)methyl)ethanamine]
EC50 (human D2R/β-arrestin [3]): 0.1 to 1 µM
IC50 (human D2R/β-arrestin [4]): 1 to 10 µM
EC50 (human D2R/β-arrestin [1]): > 30 µM
IC50 (human D2R/β-arrestin [6]): > 30 µM
